US12522597B2, “Methods and compositions for modulating splicing” (Skyhawk Therapeutics, Inc., priority 2019, dated 2026)
Like-named read-outs stand apart in the source and are kept apart here.

Columns and labels:
[1] = tested on: Huntingtin (HTT) transcripts; experiment: Quantitative splicing assay (HTT), qPCR; assay type: cell-based; conditions: Homo sapiens, GM04724 (CAG 70/20) Huntington's disease patient lymphoblasts, 24 h
Protocol: GM04724 (CAG 70/20) Huntington's disease patient lymphoblasts (Coriell) are plated in 96-wel v-bottom plates at 50,000 cells/well. Immediately after plating, cells are dosed with compound for 24 h at concentrations ranging from 2.5 uM to 0.15 nM (0.1% DMSO). Treated cells are lysed and cDNA synthesized using the Fast Advanced Cells-to-Ct kit (Thermofisher A35378) according to the manufacturer's instructions. 2 uL of each cDNA are used in qPCR reactions to confirm the compound-induced inclusion of a cryptic exon within intron 49 of the Huntingtin (HTT) transcripts. The qPCR reactions are prepared in 384-well plates in 10 uL volume, using TaqMan™ Fast Advanced Master Mix [ThermoFisher; 4444965] with primers and probes shown in the table below. Reactions are run in a Quant Studio 6 qPCR instrument with default settings.

mHTT protein = mHTT protein assay (2B7-MW1, Mesoscale Discovery); assay type: cell-based, human; conditions: GM04724 (CAG 70/20) Huntington's disease patient lymphoblast cells, 48 hours, 2B7-MW1 MSD; read-out: HTT Potency - Protein EC50 mHTT (average)
Summary of the method: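 GM04724 Huntington's patient lymphoblasts (CAG 70/20) were treated for 48 h at 10 μM to 0.6 nM. mHTT was quantified by 2B7-MW1 MSD immunoassay, whose signal depends on polyQ expansion and HTT fragment size. Viability was run on a parallel plate by CellTiter-Glo.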

[2] = tested on: MDR1-MDCK cell monolayers; experiment: MDCK-MDR1 permeability assay (BBB penetration potential); assay type: in vitro ADME; conditions: dog, MDCK-MDR1, 120 min, 5 μM, pH 7.4
Protocol: (§1) Each determination is performed in duplicate. […] Analytical conditions are outlined below.

MDR1 = experiment: as above; assay type: in vitro ADME; conditions: dog; for efflux ratio at 120 min, 5 μM: MDCK-MDR1, pH 7.4, MDCK-MDR1: Efflux; for Papp A→B at 120 min, 5 μM: MDCK-MDR1, pH 7.4, MDCK-MDR1: Papp A-B; for Papp B→A at 120 min, 5 μM: MDCK-MDR1, pH 7.4, MDCK-MDR1: Papp B-A
Protocol: as §1

[3] = qPCR HTTex49_50, read-out: HTT Potency - Splicing: E49-50 EC50 (average)
[4] = qPCR cryptic exon 49b inclusion, read-out: HTT Potency - Splicing: E49b EC50 (average)

Structure (SMILES) | EC50 [1, 3] | EC50 [1, 4] | EC50 (mHTT protein) | MDCK-MDR1: % Recov A-B [2] | MDCK-MDR1: % Recov B-A [2] | efflux ratio at 120 min, 5 μM (MDR1) | Papp A→B at 120 min, 5 μM (MDR1) | Papp B→A at 120 min, 5 μM (MDR1)
Cn1cc(-c2ccc(-c3ccc(O[C@@H]4C[C@H]5CCC[C@H](N5)[C@@H]4F)nn3)c(O)c2)cn1 (single isomer, unassigned) [1-ENT1] | 16 to 50 nM | 16 to 50 nM | 0.01 to 15 nM | 85% | 84% | 6 | 6.16 ×10⁻⁶ cm/s | 37.9 ×10⁻⁶ cm/s
Cn1cc(-c2ccc(-c3ccc(O[C@H]4C[C@@H]5CCC[C@@H](N5)[C@H]4F)nn3)c(O)c2)cn1 (single isomer, unassigned) [1-ENT2] | 16 to 50 nM | 16 to 50 nM | 0.01 to 15 nM | 76% | 83% | 6 | 6.05 ×10⁻⁶ cm/s | 33.7 ×10⁻⁶ cm/s
C[C@]12CC[C@](C)(N1)[C@H](F)[C@H](Oc1ccc(-c3ccc(-c4cn[nH]c4)cc3O)nn1)C2 (single isomer, unassigned) [2-ENT1] | 0.01 to 15 nM | 0.01 to 15 nM | 0.01 to 15 nM | 77% | 89% | 12 | 4.15 ×10⁻⁶ cm/s | 50.7 ×10⁻⁶ cm/s
C[C@@]12CC[C@@](C)(N1)[C@@H](F)[C@@H](Oc1ccc(-c3ccc(-c4cn[nH]c4)cc3O)nn1)C2 (single isomer, unassigned) [2-ENT2] | 0.01 to 15 nM | 0.01 to 15 nM | 0.01 to 15 nM | 90% | 87% | 3 | 14.5 ×10⁻⁶ cm/s | 46.4 ×10⁻⁶ cm/s
Oc1cc(-n2cccn2)ccc1-c1ccc(O[C@H]2C[C@@H]3CC[C@@H](N3)[C@H]2F)nn1 (single isomer, unassigned) [35-ENT2] | 101 to 500 nM | 101 to 500 nM | 51 to 100 nM | 62% | 68% | 4 | 6.25 ×10⁻⁶ cm/s | 24 ×10⁻⁶ cm/s
Oc1cc(-c2cn[nH]c2)ccc1-c1ccc(O[C@H]2C[C@@H]3CCC[C@@H](N3)[C@H]2F)nn1 (single isomer, unassigned) [40-ENT1] | 0.01 to 15 nM | 0.01 to 15 nM | 0.01 to 15 nM | 83% | 85% | 19 | 2.67 ×10⁻⁶ cm/s | 49.9 ×10⁻⁶ cm/s
Oc1cc(-c2cn[nH]c2)ccc1-c1ccc(O[C@@H]2C[C@H]3CCC[C@H](N3)[C@@H]2F)nn1 (single isomer, unassigned) [40-ENT2] | 0.01 to 15 nM | 0.01 to 15 nM | 0.01 to 15 nM | 80% | 83% | 17 | 2.47 ×10⁻⁶ cm/s | 41.6 ×10⁻⁶ cm/s
Oc1cc(-c2cn[nH]c2)ccc1-c1ccc(O[C@H]2C[C@@H]3CCC[C@@H](N3)[C@@H]2F)nn1 (single isomer, unassigned) [41-ENT1] | 0.01 to 15 nM | 0.01 to 15 nM | 0.01 to 15 nM | 71% | 86% | 8 | 4.33 ×10⁻⁶ cm/s | 34.7 ×10⁻⁶ cm/s
Oc1cc(-c2cn[nH]c2)ccc1-c1ccc(O[C@H]2C[C@@H]3CC[C@@H](N3)[C@H]2F)nn1 (single isomer, unassigned) [42-ENT1] | 0.01 to 15 nM | 0.01 to 15 nM | 0.01 to 15 nM | 75% | 84% | 12 | 3.39 ×10⁻⁶ cm/s | 42.4 ×10⁻⁶ cm/s
Oc1cc(-c2cn[nH]c2)ccc1-c1ccc(O[C@@H]2C[C@H]3CC[C@H](N3)[C@@H]2F)nn1 (single isomer, unassigned) [42-ENT2] | 0.01 to 15 nM | 0.01 to 15 nM | 0.01 to 15 nM | 85% | 86% | 12 | 3.2 ×10⁻⁶ cm/s | 38.5 ×10⁻⁶ cm/s
Oc1cc(-c2cn[nH]c2)ccc1-c1ccc(O[C@H]2C[C@@H]3CC[C@@H](N3)[C@@H]2F)nn1 (single isomer, unassigned) [43-ENT1] | 16 to 50 nM | 16 to 50 nM | 0.01 to 15 nM | 76% | 79% | 7 | 7.44 ×10⁻⁶ cm/s | 48.9 ×10⁻⁶ cm/s
Oc1cc(-c2cn[nH]c2)ccc1-c1ccc(O[C@@H]2C[C@H]3CC[C@H](N3)[C@H]2F)nn1 (single isomer, unassigned) [43-ENT2] | 16 to 50 nM | 16 to 50 nM | 0.01 to 15 nM | 83% | 84% | 9 | 6.27 ×10⁻⁶ cm/s | 58.7 ×10⁻⁶ cm/s
Oc1cc(-c2cn[nH]c2)ccc1-c1ccc(O[C@H]2C[C@@H]3CC(F)(F)[C@H](C2)N3)nn1 (single isomer, unassigned) [46-ENT1] | 501 to 10000 nM | 501 to 10000 nM | 501 to 10000 nM | 70% | 88% | 3 | 18.3 ×10⁻⁶ cm/s | 47 ×10⁻⁶ cm/s
Oc1cc(-c2cn[nH]c2)ccc1-c1ccc(O[C@@H]2C[C@H]3CC(F)(F)[C@@H](C2)N3)nn1 (single isomer, unassigned) [46-ENT2] | 101 to 500 nM | 101 to 500 nM | 101 to 500 nM | 72% | 83% | 3 | 14.2 ×10⁻⁶ cm/s | 43.2 ×10⁻⁶ cm/s
Cn1cc(-c2ccc(-c3ccc(O[C@@H]4C[C@H]5CCC[C@H](N5)[C@H]4F)nn3)c(O)c2)cn1 (single isomer, unassigned) [49-ENT1] | 51 to 100 nM | 51 to 100 nM | 51 to 100 nM | 49% | 82% | 2 | 5.36 ×10⁻⁶ cm/s | 11.8 ×10⁻⁶ cm/s
Cn1cc(-c2ccc(-c3ccc(O[C@H]4C[C@@H]5CCC[C@@H](N5)[C@@H]4F)nn3)c(O)c2)cn1 (single isomer, unassigned) [49-ENT2] | 16 to 50 nM | 0.01 to 15 nM | 16 to 50 nM | 46% | 75% | 3 | 4.62 ×10⁻⁶ cm/s | 15.4 ×10⁻⁶ cm/s
O=c1cc(-c2ccc(-c3ccc(O[C@@H]4C[C@H]5CCC[C@H](N5)[C@@H]4F)nn3)c(O)c2)cc[nH]1 (single isomer, unassigned) [53-ENT1] | 101 to 500 nM | 101 to 500 nM | 101 to 500 nM | 91% | 90% | 103 | 0.22 ×10⁻⁶ cm/s | 22.2 ×10⁻⁶ cm/s
O=c1cc(-c2ccc(-c3ccc(O[C@H]4C[C@@H]5CCC[C@@H](N5)[C@H]4F)nn3)c(O)c2)cc[nH]1 (single isomer, unassigned) [53-ENT2] | 101 to 500 nM | 101 to 500 nM | 101 to 500 nM | 104% | 103% | 106 | 0.22 ×10⁻⁶ cm/s | 23.2 ×10⁻⁶ cm/s
Cn1ccc(-c2ccc(-c3ccc(O[C@@H]4C[C@H]5CCC[C@H](N5)[C@@H]4F)nn3)c(O)c2)cc1=O (single isomer, unassigned) [54-ENT1] | 16 to 50 nM | 16 to 50 nM | 0.01 to 15 nM | 94% | 105% | 57 | 1.1 ×10⁻⁶ cm/s | 63 ×10⁻⁶ cm/s
Cn1ccc(-c2ccc(-c3ccc(O[C@H]4C[C@@H]5CCC[C@@H](N5)[C@H]4F)nn3)c(O)c2)cc1=O (single isomer, unassigned) [54-ENT2] | 16 to 50 nM | 16 to 50 nM | 16 to 50 nM | 101% | 107% | 34 | 1.8 ×10⁻⁶ cm/s | 61.9 ×10⁻⁶ cm/s
Oc1cc(-c2cn[nH]c2)c(F)cc1-c1ccc(O[C@@H]2C[C@H]3CCC[C@H](N3)[C@@H]2F)nn1 (single isomer, unassigned) [56-ENT1] | 0.01 to 15 nM | 0.01 to 15 nM | 0.01 to 15 nM | 55% | 74% | 15 | 2.63 ×10⁻⁶ cm/s | 39 ×10⁻⁶ cm/s
